According to US20200129499A1, “COMBINATION OF TASQUINIMOD OR A PHARMACEUTICALLY ACCEPTABLE SALT THEREOF AND A PD-1 AND/OR PD-L1 INHIBITOR, FOR USE AS A MEDICAMENT” (ACTIVE BIOTECH AB, priority 2015, published 2020):
“Also recorded” adds a separate entry of the source.

How the values were obtained:
Assay type in all cases: in vivo, mouse
PD-1 = PD-1 expression level after tasquinimod treatment (data not shown); settings: established MBT-2 tumors
MBT-2 tumors = test: Subcutaneous MBT-2 tumor model, early or established tumors (Examples 3 and 4)
Description: (§1) FIG. 4: Treatment with tasquinimod had no effect on established MBT-2 tumor growth and induced an alteration in the profile of PD-1/PD-L1 axis. (A) Growth curves and (B) tumor weight of MBT-2 tumors treated with tasquinimod at 30 mg/kg (oral gavage, twice daily) after randomization at day 11 post tumor-cell inoculation (n=12). Mice were sacrificed. Tumors were harvested, digested and then subjected to surface staining. (C) PD-L1 expression on myeloid cells treated with vehicle (control) or tasquinimod 30 mg/kg at day 15. (D) Quantitative data of the Median Fluorescence Intensity of PD-L1 gated on infiltrating myeloid cells CD1 1b+ (*, P<0.05; Mann-Whitney test, n=5 mice per group).
FIG. 5: 106 MBT-2 cells were injected subcutaneously in C3H/HeNRj mice. Animals were treated with Anti-PD-L1 or its isotype (IgG2B) at the dose of 200 μg by intraperitoneal injection. Treatment started at (A) day 1 (Student test; left panel: *, P=0.0223), or (B) day 11 post tumor cell inoculation. […]
MBT-2 cells (1×106) were injected subcutaneously into the flanks of mice and resulting tumors were allowed to grow for 21 days. Tumors were measured by caliper and tumor volume (mm3) was calculated using the formula=(Width) 2×Length 12. […]

PD-L1 in CD1 1b+ cells = test: FACS analysis of PD-L1 on tumor CD11b+ myeloid cells
Description: FIG. 3: Median Fluorescence Intensity (MFI) of PD-L1 in CD1 1b+ cells derived from mice bearing tumors treated with tasquinimod. The mice were treated with 30 mg/kg p.o. of tasquinimod twice daily from day 10 after tumor inoculation. Tasquinimod treatment was carried out for 7 days. This analysis was done by cytometry.
as §1, with “(C) PD-L1 expression on myeloid cells treated with vehicle (control) or tasquinimod 30 mg/kg at day 15.” left out
Mice were treated as described in Example 1. […] Cells were analyzed by Fortessa X-20 (BD Biosciences).
Single cell suspensions were prepared from tumors by incubating the tumors cross-cut into small pieces in 8 mg/ml Collagenase IV (Life Technologies) and 0.1% DNase (Sigma-Aldrich) for 45 min at 37° C. […] Data were analyzed using FlowJo software (Tree Star Inc.). […] This procedure yielded predominantly CD1 1b+ cells with purity greater than 80% as assessed by FACS analysis.

MBT-2 tumor cells = test: Survival in orthotopic MBT-2 bladder tumor model; settings: tasquinimod 30 mg/kg twice a day 21 days; Anti-PD1 10 mg/kg i.p. twice weekly; control 29 days; FIG. 9
Description: FIG. 9: MBT-2 tumor cells were injected orthotopically into female C3H/HeJ mice. Briefly, after a period of 4-hour of water deprivation, mice were anaesthetized using a mix of Ketamine and Xylazine. A catheter (ref: 381212 24G, BD Insyte) was inserted in the bladder through the urethra and 30 μI 0.1 N HCl was injected for 15 seconds, then replaced by 30 μI 0.1 N NaOH for 15 seconds. MBT-2 tumor cells (2×1 06) were instilled into the bladder for 45 minutes. The treatment was initiated at day 3. Tasquinimod was given at the dose of 30 mg/kg by oral gavage twice a day for 21 consecutive days. Anti-PD1 (clone: RMP1-14) or its isotype control (clone 2A3) was injected by intraperitoneal route at the dose of 10 mg/kg twice weekly for two consecutive weeks (at D4, D7, D11 and D14). The survival of MBT-2 tumor-bearing mice treated with anti-PD1, tasquinimod, the combination, or IgG control are shown in FIG. 9 (n=13). Dunnet-Hsu test was used to compare overall survival between groups.

Structure (SMILES): COc1cccc2c1c(O)c(C(=O)N(C)c1ccc(C(F)(F)F)cc1)c(=O)n2C [tasquinimod, 4-hydroxy-5-methoxy-N,1-dimethyl-2-oxo-N-[4-(trifluoromethyl)phenyl]-1,2-dihydroquinoline-3-carboxamide]
- expression level of PD-1 (PD-1): not changed
- tumor growth (tumor volume, mean±SEM) (MBT-2 tumors; established tumors, treatment from day 8, FIG. 6B): 343±67 mm3
- tumor growth of established MBT-2 tumors (MBT-2 tumors; treatment started at tumor volume 50-100 mm3, tasquinimod 30 mg/kg twice daily, Anti-PD-L1 200 μg i.p.): no effect; also recorded: lost its ability to inhibit tumor growth
- median fluorescence intensity of PD-L1 expressed on myeloid cells (PD-L1 in CD1 1b+ cells; 30 mg/kg p.o. twice daily from day 10 for 7 days, FIG. 3): increase
- expression of PD-L1 gated on CD1 1b+ cells (PD-L1 in CD1 1b+ cells; established MBT-2 tumors, tasquinimod 30 mg/kg, day 15, FIGS. 4C and D): increase
- median survival of mice (MBT-2 tumor cells): 27 days
